Experimental data published in ChEMBL document CHEMBL1201862, “PubChem BioAssay data set” (2004).
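Method: 48-hour compound exposure of cells in 96-well plates, five concentrations, linear interpolation of endpoints. At the GI50, growth is halved.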 The source made the active and inactive calls. Cut-off read from the data, not from the text of the source: active = GI50 up to about 1.1 µM and inactive = higher.

What was measured:
Assay in all cases: growth of human tumour cells (NCI), 48 h
786-0 = system: 786-0
A549 = system: A549
ACHN = system: ACHN
BT-549 = system: BT-549
CAKI-1 = system: CAKI-1
CCRF-CEM = system: CCRF-CEM
COLO 205 = system: COLO 205
DLD-1 = system: DLD-1
DMS-114 = system: DMS-114
DMS-273 = system: DMS-273
DU-145 = system: DU-145
EKVX = system: EKVX
HCC 2998 = system: HCC 2998
HCT-116 = system: HCT-116
HCT-15 = system: HCT-15
HL-60 = system: HL-60
HOP-18 = system: HOP-18
HOP-62 = system: HOP-62
HOP-92 = system: HOP-92
HT-29 = system: HT-29
Hs-578T = system: Hs-578T
IGROV-1 = system: IGROV-1
K562 = system: K562
KM-20L2 = system: KM-20L2
KM12 = system: KM12
LOX IMVI = system: LOX IMVI
LXFL 529 = system: LXFL 529
M14 = system: M14
M19-MEL = system: M19-MEL
MDA-MB-231 = system: MDA-MB-231
MDA-MB-435 = system: MDA-MB-435
MDA-N = system: MDA-N
MOLT-4 = system: MOLT-4
Malme-3M = system: Malme-3M
NCI-H226 = system: NCI-H226
NCI-H23 = system: NCI-H23
NCI-H460 = system: NCI-H460
NCI-H522 = system: NCI-H522
NCI/ADR-RES = system: NCI/ADR-RES
OVCAR-3 = system: OVCAR-3
OVCAR-4 = system: OVCAR-4
OVCAR-5 = system: OVCAR-5
OVCAR-8 = system: OVCAR-8
PC-3 = system: PC-3
RPMI-8226 = system: RPMI-8226
RXF 393 = system: RXF 393
RXF 631 = system: RXF 631
SF-268 = system: SF-268
SF-295 = system: SF-295
SF-539 = system: SF-539
SK-MEL-28 = system: SK-MEL-28
SK-MEL-2 = system: SK-MEL-2
SK-MEL-5 = system: SK-MEL-5
SK-OV-3 = system: SK-OV-3
SN12C = system: SN12C
SNB-19 = system: SNB-19
SNB-75 = system: SNB-75
SNB-78 = system: SNB-78
SW-620 = system: SW-620
T47D = system: T47D
TK-10 = system: TK-10
U-251 = system: U-251
UACC-257 = system: UACC-257
UACC-62 = system: UACC-62
UO-31 = system: UO-31
XF498 = system: XF498

Compound: COC(=O)/C(=N\Nc1nnc(C)n1N)C(C#N)c1ccccc1 (stereo unspecified)
- GI50 (786-0): > 39.9 µM (inactive)
- GI50 (A549): > 92.7 µM (inactive)
- GI50 (ACHN): 27.8 µM (inactive)
- GI50 (BT-549): > 100 µM (inactive)
- GI50 (CAKI-1): > 100 µM (inactive)
- GI50 (CCRF-CEM): > 100 µM (inactive)
- GI50 (COLO 205): > 63.2 µM (inactive)
- GI50 (DLD-1): 31.1 µM (inactive)
- GI50 (DMS-114): 21.5 µM (inactive)
- GI50 (DMS-273): > 100 µM (inactive)
- GI50 (DU-145): > 100 µM (inactive)
- GI50 (EKVX): > 100 µM (inactive)
- GI50 (HCC 2998): > 100 µM (inactive)
- GI50 (HCT-116): > 73.1 µM (inactive)
- GI50 (HCT-15): 56.5 µM
- GI50 (HL-60): > 100 µM (inactive)
- GI50 (HOP-18): 7.05 µM (inactive)
- GI50 (HOP-62): > 100 µM (inactive)
- GI50 (HOP-92): > 100 µM (inactive)
- GI50 (HT-29): > 63.1 µM (inactive)
- GI50 (Hs-578T): > 100 µM (inactive)
- GI50 (IGROV-1): > 54.8 µM (inactive)
- GI50 (K562): > 100 µM (inactive)
- GI50 (KM-20L2): > 100 µM (inactive)
- GI50 (KM12): > 100 µM (inactive)
- GI50 (LOX IMVI): > 64.9 µM (inactive)
- GI50 (LXFL 529): 64.9 µM (inactive)
- GI50 (M14): > 74.6 µM (inactive)
- GI50 (M19-MEL): 18.5 µM (inactive)
- GI50 (MDA-MB-231): > 100 µM (inactive)
- GI50 (MDA-MB-435): 17.3 µM (inactive)
- GI50 (MDA-N): 23.4 µM (inactive)
- GI50 (MOLT-4): > 100 µM (inactive)
- GI50 (Malme-3M): 22.3 µM (inactive)
- GI50 (NCI-H226): > 100 µM (inactive)
- GI50 (NCI-H23): 24.1 µM (inactive)
- GI50 (NCI-H460): > 100 µM (inactive)
- GI50 (NCI-H522): > 100 µM (inactive)
- GI50 (NCI/ADR-RES): > 100 µM (inactive)
- GI50 (OVCAR-3): > 100 µM (inactive)
- GI50 (OVCAR-4): > 40 µM (inactive)
- GI50 (OVCAR-5): > 100 µM (inactive)
- GI50 (OVCAR-8): > 73.3 µM (inactive)
- GI50 (PC-3): > 100 µM (inactive)
- GI50 (RPMI-8226): 99.5 µM (inactive)
- GI50 (RXF 393): > 100 µM (inactive)
- GI50 (RXF 631): 83.6 µM (inactive)
- GI50 (SF-268): > 100 µM (inactive)
- GI50 (SF-295): > 100 µM (inactive)
- GI50 (SF-539): 64.1 µM (inactive)
- GI50 (SK-MEL-28): > 100 µM (inactive)
- GI50 (SK-MEL-2): > 100 µM (inactive)
- GI50 (SK-MEL-5): 92.3 µM (inactive)
- GI50 (SK-OV-3): > 100 µM (inactive)
- GI50 (SN12C): > 48.4 µM (inactive)
- GI50 (SNB-19): > 100 µM (inactive)
- GI50 (SNB-75): > 64.9 µM (inactive)
- GI50 (SNB-78): > 100 µM (inactive)
- GI50 (SW-620): > 86.5 µM (inactive)
- GI50 (T47D): > 100 µM (inactive)
- GI50 (TK-10): > 100 µM (inactive)
- GI50 (U-251): > 77.4 µM (inactive)
- GI50 (UACC-257): 40.6 µM (inactive)
- GI50 (UACC-62): > 100 µM (inactive)
- GI50 (UO-31): > 91.4 µM (inactive)
- GI50 (XF498): > 100 µM (inactive)
